The values that follow come from patent publication US20240391875A1, “ISOQUINOLINONES AND QUINOLINONES AS MODULATORS OF POLRMT” (Pretzel Therapeutics, Inc., priority 2021, published 2024).

Chain of POLRMT (O00411 42-1230): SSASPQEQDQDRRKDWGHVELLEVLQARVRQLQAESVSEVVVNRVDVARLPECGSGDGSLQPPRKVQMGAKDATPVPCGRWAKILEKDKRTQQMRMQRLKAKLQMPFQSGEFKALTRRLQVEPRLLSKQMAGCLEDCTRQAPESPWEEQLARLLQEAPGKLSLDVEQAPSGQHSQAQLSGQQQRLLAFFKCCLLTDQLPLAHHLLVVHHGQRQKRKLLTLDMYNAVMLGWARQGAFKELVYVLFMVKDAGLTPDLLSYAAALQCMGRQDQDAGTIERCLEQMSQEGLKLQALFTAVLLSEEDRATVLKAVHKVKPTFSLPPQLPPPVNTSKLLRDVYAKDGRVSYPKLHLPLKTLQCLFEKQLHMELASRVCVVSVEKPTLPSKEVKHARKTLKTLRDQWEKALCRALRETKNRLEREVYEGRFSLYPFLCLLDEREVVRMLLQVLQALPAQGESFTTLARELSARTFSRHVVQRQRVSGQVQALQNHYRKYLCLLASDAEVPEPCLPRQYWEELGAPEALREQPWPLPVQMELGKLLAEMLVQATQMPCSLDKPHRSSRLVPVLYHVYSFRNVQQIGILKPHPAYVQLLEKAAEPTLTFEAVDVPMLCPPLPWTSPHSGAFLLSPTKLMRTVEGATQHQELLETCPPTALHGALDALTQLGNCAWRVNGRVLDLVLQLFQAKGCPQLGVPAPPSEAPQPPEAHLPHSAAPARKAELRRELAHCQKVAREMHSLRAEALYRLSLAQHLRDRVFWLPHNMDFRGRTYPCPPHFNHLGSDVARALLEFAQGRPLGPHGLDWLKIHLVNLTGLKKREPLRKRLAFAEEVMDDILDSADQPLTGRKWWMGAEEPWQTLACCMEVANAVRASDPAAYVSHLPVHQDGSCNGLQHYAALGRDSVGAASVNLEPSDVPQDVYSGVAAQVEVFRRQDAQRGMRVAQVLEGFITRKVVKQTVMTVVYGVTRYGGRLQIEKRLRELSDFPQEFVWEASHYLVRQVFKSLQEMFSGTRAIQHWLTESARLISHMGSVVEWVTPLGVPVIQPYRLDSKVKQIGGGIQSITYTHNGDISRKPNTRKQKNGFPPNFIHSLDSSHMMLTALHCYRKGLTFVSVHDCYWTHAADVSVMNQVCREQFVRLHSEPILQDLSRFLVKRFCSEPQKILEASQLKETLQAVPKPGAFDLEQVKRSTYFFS

One assay concerns the target POLRMT (Homo sapiens, UniProt O00411). Nature of the assay: homogeneous TR-FRET assay of mitochondrial transcription (inhibition of POLRMT). In kind it is biochemical. To be noted: isoquinolinone compounds (Table 1). Here is the method: The inhibitory activity of the compounds of the present invention against POLRMT were determined by assays based on Bergbrede, T., et al., “An adaptable high-throughput technology enabling the identification of specific transcription modulators,” SLAC Discov., 22, 378-386 (2017).
The ability of some compounds of the present invention to inhibit POLRMT were determined in a homogeneous TR-FRET Assay using high-throughput screening in a 384-well plate format. This method is used to monitor the activity of mitochondrial transcription through measurement of its product, a 407 bp long RNA transcript. Detection of the product is facilitated by hybridization of two DNA-oligonucleotide probes to specific and adjacent sequences within the RNA product sequence. Upon annealing of the probes, two fluorophores are coupled directly to an acceptor nucleotide probe (ATTO647, 5′), or introduced via a coupled streptavidin with a biotinylated donor nucleotide probe (Europium cryptate) that is brought into sufficient proximity to serve as a fluorescence-donor-acceptor pair. Thus, a FRET signal at 665 nm is generated upon excitation at 340 nm.
Proteins used as transcription factors (POLRMT: NP_005026.3, TFAM: NP_003192.1, TFB2M: NP_071761.1) are diluted from their stocks to working concentrations of 1 μM, 20 μM and 4 μM respectively, in a dilution buffer containing 20 mM Tris-HCl (pH 8.0), 200 mM NaCl, 10% (v/v) glycerol, 1 mM Dithiothreitol (DTT), 0.5 mM EDTA.
DNA template is a pUC18 plasmid with the mitochondrial light strand promotor sequence (1-477) cloned between HindIII and BamHI sites. The DNA template is restriction linearized proximal to the promotor 3′-end (pUC-LSP).
The reaction mixture (10 uL) containing 7.5 nM POLRMT, 15 nM of TFB2M, 30 nM of TFAM, 0.5 nM of DNA template and 500 μM nucleotide triphosphate mix (NTPs) in a reaction buffer (containing 10 mM Tris-HCl (pH 7.5), 10 mM MgCl2, 40 mM NaCl, 10 mM DTT, 0.005% (w/v) Tween-20, 160 units/ml Rnase inhibitor and 0.1 mg/mL BSA) are dispensed to compounds in microplates, using a Thermo Multidrop® dispenser, and incubated at 37° C. in a VWR INCU-Line incubator for 60 minutes after mixing. No nucleotide triphosphate mix is added to negative control samples. Microplates with compounds to be tested in the assay are prepared from 10 mM compound stocks in 100% DMSO, equal amounts of DMSO without any compound are added to positive control and negative control samples.
During the incubation, a mix of the detection reagents is prepared in a buffer such that the enzymatic reaction is terminated due to chelating of Mg-ions and increased ionic strength, containing 50 mM Tris-HCl (pH 7.5), 700 mM NaCl, 20 mM EDTA, and 0.010% (w/v) Tween-20. Europium-streptavidin is pre-incubated with a 200-fold molar excess of a random sequence oligonucleotide to block unspecific binding of oligo, for two hours at ambient temperature in the dark. Afterwards, the blocked Europium-streptavidin is kept on ice until use.
At the end of the enzymatic reaction time, 5 μL detection oligo mix in the detection buffer is added, and assay plates are mixed and kept at ambient temperature for one hour, protected from light. The concentration of the Acceptor nucleotide oligo (e.g., ATTO647N-5′-[…]-3′) and Donor nucleotide oligo (e.g., bio-5′-AACACATCTCT(-bio)GCCAAACCCCA-bio-3′) in each assay well is 1 nM, and 3 nM, respectively.
After incubation with oligo mix, 5 μL of pre-blocked Europium-streptavidin reagent is dispensed to each assay well, assay plates are again mixed and kept at ambient temperature for one hour, protected from light.
The generated signal is measured with BMG Pherastar microtiter plate reader with a TRF light unit, using excitation at 340 nm, an integration time of 200 μs, and a delay time of 100 μs, before detection at 620 nm and 665 nm. The ratio of donor- and acceptor-fluorescence is used as a measure of the generated transcript product (i.e. enzymatic activity).
On the technique in general: In TR-FRET formats the signal depends on donor and acceptor labels being close together.
In the case of `C[C@@H](Oc1ccc2c(-c3ccc(F)cc3Cl)c[nH]c(=O)c2c1)C(=O)N1CCO[C@H](C(N)=O)C1` [Example 132, (S)-4-((R)-2-((4-(2-chloro-4-fluorophenyl)-1-oxo-1,2-dihydroisoquinolin-7-yl)oxy)propanoyl)morpholine-2-carboxamide], the IC50 amounted to 0.4 µM. This counts as sub-micromolar.

`C[C@@H](Oc1ccc2c(-c3ccc(F)cc3Cl)c[nH]c(=O)c2c1)C(=O)N1CCS(=O)(=O)CC1` [Example 101, (R)-4-(2-chloro-4-fluorophenyl)-7-((1-(1,1-dioxidothiomorpholino)-1-oxopropan-2-yl)oxy)isoquinolin-1(2H)-one] displayed an IC50 of 2 µM. This IC50 lies about 5-fold higher than the previous one.

`C[C@@H](Oc1ccc2c(-c3ccc(F)cc3Cl)c[nH]c(=O)c2c1)C(=O)O` [Example 90, (R)-2-((4-(2-chloro-4-fluorophenyl)-1-oxo-1,2-dihydroisoquinolin-7-yl)oxy)propanoic acid] displayed an IC50 of 1 µM. This IC50 lies about 2-fold lower than the previous one.

In turn, `C[C@@H](Oc1ccc2c(-c3ccc(F)cc3Cl)c[nH]c(=O)c2c1)C(=O)N1CCOC[C@@H]1C(=O)O` [Example 115, (R)-4-((R)-2-((4-(2-chloro-4-fluorophenyl)-1-oxo-1,2-dihydroisoquinolin-7-yl)oxy)propanoyl)morpholine-3-carboxylic acid] came in with an IC50 of 0.4 µM.

`CCC(C)Oc1ccc2c(-c3ccccc3C)c[nH]c(=O)c2c1` (stereo not drawn) [Example 5, 7-(sec-butoxy)-4-(o-tolyl)isoquinolin-1(2H)-one] displayed an IC50 of 0.2 µM.

Consider `CNC(=O)[C@H](C)Oc1ccc2c(-c3ccccc3C)c[nH]c(=O)c2c1` [Example 28, (S)—N-methyl-2-((1-oxo-4-(o-tolyl)-1,2-dihydroisoquinolin-7-yl)oxy)propenamide], for which the 50% inhibitory concentration (IC50) turned out to be 36 µM.

On to `Cc1c(F)cccc1-c1c[nH]c(=O)c2cc(OCC#N)ccc12` [Example 135, 2-((4-(3-fluoro-2-methylphenyl)-1-oxo-1,2-dihydroisoquinolin-7-yl)oxy)acetonitrile], for which the IC50 was 0.2 µM. This IC50 is about 180-fold lower than that of the compound before.

For `C[C@@H](Oc1ccc2c(-c3ccc(F)cc3Cl)c[nH]c(=O)c2c1)C(=O)N1CCC[C@H](C#N)C1` [Example 87, (S)-1-((R)-2-((4-(2-chloro-4-fluorophenyl)-1-oxo-1,2-dihydroisoquinolin-7-yl)oxy)propanoyl)piperidine-3-carbonitrile], the IC50 stood at 0.2 µM.

With `Cc1ccccc1-c1c[nH]c(=O)c2cc(OC(C)C#N)ccc12` (single isomer, unassigned) [Example 13, 2-((1-oxo-4-(o-tolyl)-1,2-dihydroisoquinolin-7-yl)oxy)propanenitrile], half-maximal inhibition (IC50) required 0.9 µM.

For the compound `CC(=O)NCc1ccc2c(-c3ccccc3C)c[nH]c(=O)c2c1` [Example 39, N-((1-oxo-4-(o-tolyl)-1,2-dihydroisoquinolin-7-yl)methyl)acetamide], the IC50 is > 100 µM.

Compound `Cc1cc(F)ccc1-c1c[nH]c(=O)c2cc(OCC#N)ccc12` [Example 83, 2-((4-(4-fluoro-2-methylphenyl)-1-oxo-1,2-dihydroisoquinolin-7-yl)oxy)acetonitrile] returned a half-inhibitory concentration (IC50) of 0.4 µM.

In turn, `CC(=O)N1CCN(C(=O)[C@@H](C)Oc2ccc3c(-c4ccc(F)cc4Cl)c[nH]c(=O)c3c2)CC1` [Example 116, (R)-7-((1-(4-acetylpiperazin-1-yl)-1-oxopropan-2-yl)oxy)-4-(2-chloro-4-fluorophenyl)isoquinolin-1(2H)-one] registered an IC50 of 0.5 µM. This IC50 and that of the compound before are within 1.5-fold of each other.

Compound `C[C@@H]1CN(C(=O)[C@@H](C)Oc2ccc3c(-c4ccc(F)cc4Cl)c[nH]c(=O)c3c2)C[C@H](C)O1` [Example 100, 4-(2-chloro-4-fluorophenyl)-7-(((R)-1-((2S,6R)-2,6-dimethylmorpholino)-1-oxopropan-2-yl)oxy)isoquinolin-1(2H)-one] showed an IC50 of 0.1 µM.

As to `COCC(Oc1ccc2c(-c3ccccc3C)c[nH]c(=O)c2c1)C(N)=O` (single isomer, unassigned) [Example 52], the IC50 was > 100 µM.

Regarding `C[C@@H](Oc1ccc2c(-c3ccc(F)cc3Cl)c[nH]c(=O)c2c1)C(=O)N1C2CCC1COC2` [Example 92, 7-(((2R)-1-(3-oxa-8-azabicyclo[3.2.1]octan-8-yl)-1-oxopropan-2-yl)oxy)-4-(2-chloro-4-fluorophenyl)isoquinolin-1(2H)-one], half-maximal inhibition (IC50) was put at 0.08 µM.

`C[C@@H](Oc1ccc2c(-c3ccc(F)cc3Cl)c[nH]c(=O)c2c1)C(=O)N1CCOCC1` [Example 79, (R)-4-(2-chloro-4-fluorophenyl)-7-((1-morpholino-1-oxopropan-2-yl)oxy)isoquinolin-1(2H)-one] came in with an IC50 of 0.05 µM.

`CC(C)Oc1ccc2c(-c3ccc(F)cc3Cl)c[nH]c(=O)c2c1` [Example 7, 4-(2-chloro-4-fluorophenyl)-7-isopropoxyisoquinolin-1(2H)-one] came in with an IC50 of 0.8 µM.

On to `Cc1ccccc1-c1c[nH]c(=O)c2cc(NC(C)C(N)=O)ccc12` (stereo not drawn) [Example 69], for which inhibition was half-maximal at 12 µM (IC50). This IC50 is about 15-fold higher than that of the compound before.

In turn, `CNC(=O)[C@@H](C)Oc1ccc2c(-c3ccccc3C)c[nH]c(=O)c2c1` [Example 20, (R)—N-methyl-2-((1-oxo-4-(o-tolyl)-1,2-dihydroisoquinolin-7-yl)oxy)propanamide] had an IC50 of 1 µM. Compared with the last compound, the IC50 is about 12-fold lower.

`O=c1[nH]cc(-c2ccc(F)cc2Cl)c2ccc(O)cc12` [Example 2, 4-(2-chloro-4-fluorophenyl)-7-hydroxyisoquinolin-1(2H)-one]: the IC50 is > 100 µM.

`N#CCOc1ccc2c(-c3ccc(F)cc3Cl)c[nH]c(=O)c2c1` [Example 37, 2-((4-(2-chloro-4-fluorophenyl)-1-oxo-1,2-dihydroisoquinolin-7-yl)oxy)acetonitrile] registered an IC50 of 0.9 µM.

On to `C[C@@H](Oc1ccc2c(-c3ccc(F)cc3Cl)c[nH]c(=O)c2c1)C(=O)N1CCOC[C@H]1CO` [Example 113, 4-(2-chloro-4-fluorophenyl)-7-(((R)-1-((R)-3-(hydroxymethyl)morpholino)-1-oxopropan-2-yl)oxy)isoquinolin-1(2H)-one], for which the midpoint of inhibition, the IC50, lay at 0.6 µM.

In the case of `C[C@@H](Oc1ccc2c(-c3ccc(F)cc3Cl)c[nH]c(=O)c2c1)C(=O)N1CCCC(S(C)(=O)=O)C1` (single isomer, unassigned) [Example 95], the IC50 came out at 1 µM. Compared with the last compound, the IC50 is about 1.7-fold higher.

Compound `C[C@@H](Oc1ccc2c(-c3ccc(F)cc3Cl)c[nH]c(=O)c2c1)C(=O)N1CCOC[C@@H]1C(N)=O` [Example 122, (R)-4-((R)-2-((4-(2-chloro-4-fluorophenyl)-1-oxo-1,2-dihydroisoquinolin-7-yl)oxy)propanoyl)morpholine-3-carboxamide] gave an IC50 of 0.3 µM.

`C[C@@H](Oc1ccc2c(-c3ccc(F)cc3Cl)c[nH]c(=O)c2c1)C(=O)N1CCOC[C@H]1C(=O)O` [Example 112, (S)-4-((R)-2-((4-(2-chloro-4-fluorophenyl)-1-oxo-1,2-dihydroisoquinolin-7-yl)oxy)propanoyl)morpholine-3-carboxylic acid] came in with an IC50 of 4 µM.

In the case of `C[C@@H](Oc1ccc2c(-c3ccc(F)cc3Cl)c[nH]c(=O)c2c1)C(=O)N1CCOC[C@@H]1CO` [Example 114, 4-(2-chloro-4-fluorophenyl)-7-(((R)-1-((S)-3-(hydroxymethyl)morpholino)-1-oxopropan-2-yl)oxy)isoquinolin-1(2H)-one], half-maximal inhibition (IC50) required 0.2 µM.

The same assay, now with this note: quinolinone compounds (Table 2).
With `Cc1ccccc1-c1cc(=O)[nH]c2cc(O[C@H](C)C(=O)N3CCC[C@H](C(=O)O)C3)ccc12` [Example Q15, (S)-1-((R)-2-((2-oxo-4-(o-tolyl)-1,2-dihydroquinolin-7-yl)oxy)propanoyl)piperidine-3-carboxylic acid], the IC50 is 7 µM.

As a reminder, the IC50 is the concentration that inhibits the measured activity by half. Low readings indicate inhibition by little substance, high ones a need for much substance.
